In paper PMC11763264, “Antibacterial and Antifungal Activities of Linear and Cyclic Peptides Containing Arginine, Tryptophan, and Diphenylalanine” (Antibiotics, 2025):
Values after ≈ are worked out from the molar mass of the structure shown. Non-standard residues stand in square brackets, D forms with d. Residues, ends and D or L forms follow the SMILES beside them. Dip = N[C@H](C(=O)O)C(c1ccccc1)c1ccccc1

Tests used:
Experiment in all cases: microbe, parasite or virus in culture
[1] = tested on: A. fumigatus (Af-293); assay type: cell-based, Aspergillus fumigatus; conditions: RPMI 1640 with 2% D-glucose, HEPES, 10^6 cells/mL, 24 and 48 h at 35 °C, no visible growth; triplicates, repeated twice
Experimental: (§1) The antifungal activity of all ten synthesized linear and cyclic peptides was evaluated against C. albicans (ATCC 60193), C. parapsilosis (ATCC 22019), and A. fumigatus (AF-293). Fluconazole and amphotericin B were used as positive controls for this study. The MIC was determined at concentrations in wells with no visible fungal growth.
A. fumigatus (Af-293) was cultured on Sabouraud dextrose agar (SDA) (Lot #3431660, Oxoid) for 48–72 h at 35 °C to obtain fresh and mature colonies which reached the proper sporulation then used to prepare the inoculum. The colonies were covered with Phosphate-Buffered Saline (PBS) containing 0.025% Tween-20, scraped from the plate, and carefully collected into a sterile tube. The suspension was centrifuged at 3000 RPM for 5 min after the separation between conidia and hyphae. The supernatant was discarded, and the pellet was resuspended in 5 mL of PBS.
Peptide concentrations of 50, 25, 12.5, 6.25, and 3.1 μg/mL were tested in triplicate. Each well of a 96-well plate was inoculated with the prepared inoculum suspension, which was diluted with RPMI 1640 medium containing L-glutamine, supplemented with 2% D-glucose, and the pH adjusted using HEPES buffer. The plates were incubated for 50 min at 35 °C to achieve a final cell concentration of 10^6 cells/mL. The control wells contained the same inoculum without any compound. The plates were then incubated for 24 and 48 h at 35 °C. Fungal growth was visualized, and the minimum inhibitory concentration (MIC) was determined as the lowest peptide concentration, where no growth was observed.

[2] = tested on: K. pneumoniae (ATCC BAA-1705); assay type: cell-based, Klebsiella pneumoniae; conditions: ATCC BAA-1705, 24 h
Experimental: (§2) The antibacterial activity of all ten synthesized linear and cyclic peptides was evaluated against MRSA (ATCC BAA-1556), S. aureus (ATCC 29213), E. faecium (ATCC 700221), S. pneumoniae (ATCC 51938), E. faecalis (ATCC 29212), B. subtilis (ATCC-6633), K. pneumoniae (ATCC BAA-1705), P. aeruginosa (ATCC 27883), and E. coli (ATCC 25922). Meropenem and daptomycin were used as positive controls for this study. Certain peptides are marked as “NT” (not tested) against specific bacterial strains based on initial screening data. […] The MIC was determined by micro-broth dilution protocol, where the minimal concentrations were determined to be in wells with no visible bacterial growth.
(§3) All bacterial experiments were carried out in a laminar flow hood (Labconco, Kansas City, MO, USA). The bacterial strains were cultured following the guidelines set by the Clinical Laboratory Standards Institute (CLSI). Antibacterial assays were performed using a standard microtiter dilution method as described in previous studies. The minimum inhibitory concentration (MIC) refers to the lowest peptide concentration that inhibits bacterial growth in wells with no visible bacterial growth. MIC was determined by micro-broth dilution. Bacteria were cultured overnight in 6 mL of Luria Broth (LB). A stock solution of the peptide was prepared in water and DMSO, and a test compound solution with a concentration of 256 µg/mL was made in LB. Meropenem, with a solubility of 8 mg/mL, was prepared as a stock solution at 4 mg/500 µL. An aliquot of the overnight bacteria culture was diluted in normal saline (NS, 1 mL) until achieving a 0.5 McFarland turbidity (1.5 × 10^8 bacterial cell CFU/mL). A 0.5 McFarland compared solution (60 µL) was added to Mueller Hinton Broth (MH) 8940 µL to generate a 1/150 dilution. A 200 µL test compound solution was added to the first well of a 96-well plate, and the remaining wells (2–12) were filled with 100 µL of MH media using a multi-channel pipette from a sterile reservoir. A concentration of […] of the tested peptides was prepared from a stock solution of the samples for testing in Muller−Hinton broth MH media. Peptides stock solution was dissolved in 5% DMSO in water, and the final concentration of DMSO in the first well of assay plate was 2.5% DMSO/H2O and diluted across the assay plate.
(§4) A 100 µL sample from well 1 was pipetted into well 2, and the solution was mixed thoroughly by pipetting up and down. Next, 100 µL was transferred from well 2 to well 3, followed by thorough mixing. This 2-fold serial dilution process continued through well 11, with no additions made to well 12. The final 100 µL from well 11 was discarded. After completing the serial dilution, each well (1–12) contained 100 µL of solution. The bacterial culture in MH media was vortexed and transferred to a sterile reservoir, from which 100 µL was added to each well using a 12-channel pipette. (Note: The dilutions were further diluted upon adding the bacterial solution; for example, the concentration in well 1 started at […] after the addition of the bacterial culture.) The plates were incubated overnight at 37 °C for 24 h. All experiments were performed in triplicate and repeated twice, with controls consisting of bacteria in MH media and positive controls of daptomycin or meropenem.

[3] = tested on: C. albicans (ATCC 60193); assay type: cell-based, Candida albicans; conditions: ATCC 60193, 24 h
Experimental: as §1
(§5) In this study, C. albicans and C. parapsilosis were cultured on Yeast Peptone Dextrose (YPD) agar containing 1% w/v yeast extract, 2% w/v peptone, 2% w/v D-glucose, and 1.5% agar. A single colony from the agar was selected and cultured in Tryptone soy broth supplemented with 0.1% D-glucose, then incubated for 24 h at 37 °C. The cells were washed twice with PBS by centrifugation at 2000 RPM for 5 min. The pellet was resuspended in 5 mL of PBS, diluted in RPMI 1640 with L-glutamine, supplemented with 2% D-glucose, and the pH adjusted using HEPES buffer. The suspension was then incubated for 50 min at 35 °C to achieve a final cell concentration of 10^6 cells/mL.
(§6) Peptide concentrations of 50, 25, 12.5, 6.25, and 3.1 μg/mL were tested in triplicate and repeated twice. Each well of a 96-well plate was inoculated with the prepared inoculum suspension, which was diluted with RPMI media to a final volume of 200 μL per well. The control well received the same inoculum without any compound. The plates were incubated for 24 h at 37 °C. Fungal and microbial growth were visually observed in the control wells, and the minimum inhibitory concentration (MIC) was determined as the lowest concentration at which no growth was detected in the wells. Amphotericin B was used as a standard antifungal drug.

[4] = tested on: C. parapsilosis (ATCC 22019); assay type: cell-based, Candida parapsilosis; conditions: ATCC 22019, 24 h
Experimental: as §1, §5, §6

[5] = tested on: MRSA (ATCC BAA-1556); assay type: cell-based, Methicillin-Resistant Staphylococcus aureus; conditions: ATCC BAA-1556, 24 h
Experimental: as §2, §3, §4

[6] = tested on: E. coli (ATCC 25922); assay type: cell-based, Escherichia coli; conditions: ATCC 25922, 24 h
Experimental: as §2, §3, §4

[7] = tested on: P. aeruginosa (ATCC 27883); assay type: cell-based, Pseudomonas aeruginosa; conditions: ATCC 27883, 24 h
Experimental: as §2, §3, §4

| Compound | MIC [1] [µM] | MIC [2] [µM] | MIC [3] [µM] | MIC [4] [µM] | MIC [5] [µM] | MIC [6] [µM] | MIC [7] [µM] |
| --- | --- | --- | --- | --- | --- | --- | --- |
| N=C(N)NCCC[C@@H]1NC(=O)[C@H](Cc2c[nH]c3ccccc23)NC(=O)[C@H](CCCNC(=N)N)NC(=O)[C@H](Cc2c[nH]c3ccccc23)NC(=O)[C@H](CCCNC(=N)N)NC(=O)[C@H](C(c2ccccc2)c2ccccc2)NC(=O)[C@H](CCCNC(=N)N)NC(=O)[C@H](C(c2ccccc2)c2ccccc2)NC(=O)[C@H](CCCNC(=N)N)NC(=O)[C@H](Cc2c[nH]c3ccccc23)NC1=O [[(DipR)2(WR)3]] (cyclo([Dip]R[Dip]RWRWRWR)) | 1.7 (≈ 3.04 µg/mL) | 12.5 (≈ 22.3 µg/mL) | 7.0 (≈ 12.5 µg/mL) | 7.0 (≈ 12.5 µg/mL) | 3.1 (≈ 5.54 µg/mL) | 12.5 (≈ 22.3 µg/mL) | 25 (≈ 44.7 µg/mL) |
| N=C(N)NCCC[C@@H]1NC(=O)[C@H](Cc2c[nH]c3ccccc23)NC(=O)[C@H](CCCNC(=N)N)NC(=O)[C@H](C(c2ccccc2)c2ccccc2)NC(=O)[C@H](CCCNC(=N)N)NC(=O)[C@H](C(c2ccccc2)c2ccccc2)NC(=O)[C@H](CCCNC(=N)N)NC(=O)[C@H](C(c2ccccc2)c2ccccc2)NC(=O)[C@H](CCCNC(=N)N)NC(=O)[C@H](Cc2c[nH]c3ccccc23)NC1=O [[(DipR)3(WR)2]] (cyclo([Dip]R[Dip]R[Dip]RWRWR)) | 1.7 (≈ 3.1 µg/mL) | 12.5 (≈ 22.8 µg/mL) | 6.8 (≈ 12.4 µg/mL) | 6.8 (≈ 12.4 µg/mL) | 3.1 (≈ 5.65 µg/mL) | 12.5 (≈ 22.8 µg/mL) | 25 (≈ 45.6 µg/mL) |
| N=C(N)NCCC[C@@H]1NC(=O)[C@H](Cc2c[nH]c3ccccc23)NC(=O)[C@H](CCCNC(=N)N)NC(=O)[C@H](C(c2ccccc2)c2ccccc2)NC(=O)[C@H](CCCNC(=N)N)NC(=O)[C@H](C(c2ccccc2)c2ccccc2)NC(=O)[C@H](CCCNC(=N)N)NC(=O)[C@H](C(c2ccccc2)c2ccccc2)NC(=O)[C@H](CCCNC(=N)N)NC(=O)[C@H](C(c2ccccc2)c2ccccc2)NC1=O [[(DipR)4(WR)]] (cyclo([Dip]R[Dip]R[Dip]R[Dip]RWR)) | 1.7 (≈ 3.16 µg/mL) | 25 (≈ 46.5 µg/mL) | 6.7 (≈ 12.5 µg/mL) | 6.7 (≈ 12.5 µg/mL) | 3.1 (≈ 5.77 µg/mL) | 12.5 (≈ 23.3 µg/mL) | 25 (≈ 46.5 µg/mL) |
| N=C(N)NCCC[C@@H]1NC(=O)[C@H](Cc2c[nH]c3ccccc23)NC(=O)[C@H](CCCNC(=N)N)NC(=O)[C@H](Cc2c[nH]c3ccccc23)NC(=O)[C@H](CCCNC(=N)N)NC(=O)[C@H](C(c2ccccc2)c2ccccc2)NC(=O)[C@H](CCCNC(=N)N)NC(=O)[C@H](Cc2c[nH]c3ccccc23)NC(=O)[C@H](CCCNC(=N)N)NC(=O)[C@H](Cc2c[nH]c3ccccc23)NC1=O [[(DipR)(WR)4]] (cyclo([Dip]RWRWRWRWR)) | 1.8 (≈ 3.15 µg/mL) | 12.5 (≈ 21.9 µg/mL) | 14.3 (≈ 25 µg/mL) | 7.1 (≈ 12.4 µg/mL) | 3.1 (≈ 5.42 µg/mL) | 12.5 (≈ 21.9 µg/mL) | 25 (≈ 43.7 µg/mL) |
